# PubChem BioAssay AID1963441 (Molecular Pharmacology Branch, DTP, NCI, 2024)
# pIC50: −log10 of the molar value.
# Tested on: NCI-H1876 complex spheroid growth, % test/control
# Assay: Anticancer human tumor NCI-H1876 cell line growth inhibition [Asc];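 also: compound exposure lasted 7 days starting three days after seeding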;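 as to viability, T/C: 100% = DMSO vehicle control wells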
# Conditions: for pIC50: curve of first compound; for viability, T/C: stronger effect = lower value
# In short: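 Tumor cells were grown as complex spheroids with human endothelial cells (HUVEC) and human mesenchymal stem cells as stroma. Agents were tested alone and in combination, in half-log steps down from the clinical Cmax, or from 10 microM where Cmax was unknown.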
smiles,measurement,setting,value
C=C(F)C(=O)N1CCN(c2nc(OCC3CCCN3C)nc3c2CCN(c2cccc4cccc(Cl)c24)C3)CC1CC#N (configuration not stated) + Cc1c(S(C)(=O)=O)c(-c2cc(F)cc(N3CCN(c4ccc(NS(=O)(=O)c5ccc(NC(CCN6CCC(C(=O)OCCCP(=O)(O)O)CC6)CSc6ccccc6)c(S(=O)(=O)C(F)(F)F)c5)cc4)CC3)c2)c(-c2ccc(Cl)cc2)n1C(C)C,pIC50,second compound 0.0316 µM,5.24
same,pIC50,second compound 0.1 µM,5.27
same,pIC50,second compound 0.316 µM,5.25
same,pIC50,second compound 1 µM,5.26
same,pIC50,second compound 3.16 µM,5.29
same,pIC50,second compound 10 µM,5.27
same,"viability, T/C","second compound 0.0316 µM, first compound 0.0316 µM",96.7%
same,"viability, T/C","second compound 0.0316 µM, first compound 0.1 µM",97.8%
same,"viability, T/C","second compound 0.0316 µM, first compound 0.316 µM",102%
same,"viability, T/C","second compound 0.0316 µM, first compound 1 µM",90.5%
same,"viability, T/C","second compound 0.0316 µM, first compound 3.16 µM",97.5%
same,"viability, T/C","second compound 0.0316 µM, first compound 10 µM",5.25%
same,"viability, T/C","second compound 0.1 µM, first compound 0.0316 µM",83.6%
same,"viability, T/C","second compound 0.1 µM, first compound 0.1 µM",86.1%
same,"viability, T/C","second compound 0.1 µM, first compound 0.316 µM",91.9%
same,"viability, T/C","second compound 0.1 µM, first compound 1 µM",94%
same,"viability, T/C","second compound 0.1 µM, first compound 3.16 µM",98.1%
same,"viability, T/C","second compound 0.1 µM, first compound 10 µM",2.68%
same,"viability, T/C","second compound 0.316 µM, first compound 0.0316 µM",104%
same,"viability, T/C","second compound 0.316 µM, first compound 0.1 µM",94.9%
same,"viability, T/C","second compound 0.316 µM, first compound 0.316 µM",96.5%
same,"viability, T/C","second compound 0.316 µM, first compound 1 µM",98.8%
same,"viability, T/C","second compound 0.316 µM, first compound 3.16 µM",102%
same,"viability, T/C","second compound 0.316 µM, first compound 10 µM",1.38%
same,"viability, T/C","second compound 1 µM, first compound 0.0316 µM",91.5%
same,"viability, T/C","second compound 1 µM, first compound 0.1 µM",97.1%
same,"viability, T/C","second compound 1 µM, first compound 0.316 µM",94.1%
same,"viability, T/C","second compound 1 µM, first compound 1 µM",92%
same,"viability, T/C","second compound 1 µM, first compound 3.16 µM",99.3%
same,"viability, T/C","second compound 1 µM, first compound 10 µM",2.82%
same,"viability, T/C","second compound 3.16 µM, first compound 0.0316 µM",90.6%
same,"viability, T/C","second compound 3.16 µM, first compound 0.1 µM",93.6%
same,"viability, T/C","second compound 3.16 µM, first compound 0.316 µM",97.8%
same,"viability, T/C","second compound 3.16 µM, first compound 1 µM",88.5%
same,"viability, T/C","second compound 3.16 µM, first compound 3.16 µM",86.6%
same,"viability, T/C","second compound 3.16 µM, first compound 10 µM",0.42%
same,"viability, T/C","second compound 10 µM, first compound 0.0316 µM",95.7%
same,"viability, T/C","second compound 10 µM, first compound 0.1 µM",103%
same,"viability, T/C","second compound 10 µM, first compound 0.316 µM",81.9%
same,"viability, T/C","second compound 10 µM, first compound 1 µM",91.3%
same,"viability, T/C","second compound 10 µM, first compound 3.16 µM",95%
same,"viability, T/C","second compound 10 µM, first compound 10 µM",1.21%
